According to ChEMBL document CHEMBL1201862, “PubChem BioAssay data set” (2004):
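Five concentrations, 48 hours, 96-well plates. The concentration for 50% growth inhibition is given as GI50.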 Active and inactive are the calls of the source. No stated cut-off is given here; in the data, active = GI50 up to about 1.1 µM and inactive = higher.

Columns and labels:
Experiment in all cases: growth of human tumour cells (NCI), 48 h
786-0 = system: 786-0
A498 = system: A498
A549 = system: A549
ACHN = system: ACHN
BT-549 = system: BT-549
CAKI-1 = system: CAKI-1
CCRF-CEM = system: CCRF-CEM
COLO 205 = system: COLO 205
DLD-1 = system: DLD-1
DMS-114 = system: DMS-114
DMS-273 = system: DMS-273
DU-145 = system: DU-145
EKVX = system: EKVX
HCC 2998 = system: HCC 2998
HCT-116 = system: HCT-116
HCT-15 = system: HCT-15
HL-60 = system: HL-60
HOP-18 = system: HOP-18
HOP-62 = system: HOP-62
HOP-92 = system: HOP-92
HT-29 = system: HT-29
Hs-578T = system: Hs-578T
IGROV-1 = system: IGROV-1
K562 = system: K562
KM12 = system: KM12
LOX IMVI = system: LOX IMVI
LXFL 529 = system: LXFL 529
M14 = system: M14
M19-MEL = system: M19-MEL
MCF7 = system: MCF7
MDA-MB-231 = system: MDA-MB-231
MDA-MB-435 = system: MDA-MB-435
MDA-N = system: MDA-N
MOLT-4 = system: MOLT-4
Malme-3M = system: Malme-3M
NCI-H226 = system: NCI-H226
NCI-H23 = system: NCI-H23
NCI-H460 = system: NCI-H460
NCI-H522 = system: NCI-H522
NCI/ADR-RES = system: NCI/ADR-RES
OVCAR-3 = system: OVCAR-3
OVCAR-4 = system: OVCAR-4
OVCAR-5 = system: OVCAR-5
OVCAR-8 = system: OVCAR-8
PC-3 = system: PC-3
RPMI-8226 = system: RPMI-8226
RXF 393 = system: RXF 393
SF-268 = system: SF-268
SF-295 = system: SF-295
SF-539 = system: SF-539
SK-MEL-28 = system: SK-MEL-28
SK-MEL-2 = system: SK-MEL-2
SK-MEL-5 = system: SK-MEL-5
SK-OV-3 = system: SK-OV-3
SN12C = system: SN12C
SNB-19 = system: SNB-19
SNB-75 = system: SNB-75
SNB-78 = system: SNB-78
SR = system: SR
SW-620 = system: SW-620
T47D = system: T47D
TK-10 = system: TK-10
U-251 = system: U-251
UACC-257 = system: UACC-257
UACC-62 = system: UACC-62
UO-31 = system: UO-31
XF498 = system: XF498
RXF 631 = system: RXF 631
KM-20L2 = system: KM-20L2

## O=C1CCC(c2ccccc2)=NN1c1nc2ccccc2s1
786-0
  GI50: 38.3 µM (inactive)
A498
  GI50: 30.1 µM (inactive)
A549
  GI50: 35.9 µM (inactive)
ACHN
  GI50: 29.9 µM (inactive)
BT-549
  GI50: 27.6 µM (inactive)
CAKI-1
  GI50: 32.4 µM (inactive)
CCRF-CEM
  GI50: 23.1 µM (inactive)
COLO 205
  GI50: 13.2 µM (inactive)
DLD-1
  GI50: 34.1 µM (inactive)
DMS-114
  GI50: 31 µM (inactive)
DMS-273
  GI50: 40.2 µM (inactive)
DU-145
  GI50: 22.9 µM (inactive)
EKVX
  GI50: 30.8 µM (inactive)
HCC 2998
  GI50: 26.9 µM (inactive)
HCT-116
  GI50: 29.5 µM (inactive)
HCT-15
  GI50: 29.6 µM
HL-60
  GI50: 41.3 µM (inactive)
HOP-18
  GI50: 18.8 µM (inactive)
HOP-62
  GI50: 36.9 µM (inactive)
HOP-92
  GI50: 26.7 µM (inactive)
HT-29
  GI50: 37.4 µM (inactive)
Hs-578T
  GI50: 36 µM (inactive)
IGROV-1
  GI50: 34.9 µM (inactive)
K562
  GI50: 29.8 µM (inactive)
KM12
  GI50: 29.6 µM (inactive)
LOX IMVI
  GI50: 38.6 µM (inactive)
LXFL 529
  GI50: 41.8 µM (inactive)
M14
  GI50: 49.7 µM (inactive)
M19-MEL
  GI50: 28.3 µM (inactive)
MCF7
  GI50: 27 µM (inactive)
MDA-MB-231
  GI50: 20.9 µM (inactive)
MDA-MB-435
  GI50: 23.3 µM (inactive)
MDA-N
  GI50: 27.9 µM (inactive)
MOLT-4
  GI50: 28 µM (inactive)
Malme-3M
  GI50: 32.2 µM (inactive)
NCI-H226
  GI50: 90.8 µM (inactive)
NCI-H23
  GI50: 30.2 µM (inactive)
NCI-H460
  GI50: 27.7 µM (inactive)
NCI-H522
  GI50: 24.5 µM (inactive)
NCI/ADR-RES
  GI50: 28.7 µM (inactive)
OVCAR-3
  GI50: 17.9 µM (inactive)
OVCAR-4
  GI50: 36.7 µM (inactive)
OVCAR-5
  GI50: > 63.5 µM (inactive)
OVCAR-8
  GI50: 34.8 µM (inactive)
PC-3
  GI50: 26.1 µM (inactive)
RPMI-8226
  GI50: 27 µM (inactive)
RXF 393
  GI50: 15.4 µM (inactive)
SF-268
  GI50: 27.2 µM (inactive)
SF-295
  GI50: 25.7 µM (inactive)
SF-539
  GI50: 24.5 µM (inactive)
SK-MEL-28
  GI50: 40.2 µM (inactive)
SK-MEL-2
  GI50: 20.1 µM (inactive)
SK-MEL-5
  GI50: 20.4 µM (inactive)
SK-OV-3
  GI50: 25.2 µM (inactive)
SN12C
  GI50: 29.4 µM (inactive)
SNB-19
  GI50: 35.6 µM (inactive)
SNB-75
  GI50: 22.3 µM (inactive)
SNB-78
  GI50: 41.2 µM (inactive)
SR
  GI50: 29.7 µM (inactive)
SW-620
  GI50: 37.4 µM (inactive)
T47D
  GI50: 11.9 µM (inactive)
TK-10
  GI50: 35.8 µM (inactive)
U-251
  GI50: 29.4 µM (inactive)
UACC-257
  GI50: 27.2 µM (inactive)
UACC-62
  GI50: 30.3 µM (inactive)
UO-31
  GI50: 31.5 µM (inactive)
XF498
  GI50: 31.9 µM (inactive)

## Cc1c2n(c3ccccc13)CC1CON(C)C21 (stereo not given)
786-0
  GI50: > 100 µM (inactive)
CAKI-1
  GI50: > 100 µM (inactive)
CCRF-CEM
  GI50: > 100 µM (inactive)
COLO 205
  GI50: > 100 µM (inactive)
DLD-1
  GI50: > 100 µM (inactive)
DMS-114
  GI50: > 100 µM (inactive)
DMS-273
  GI50: > 100 µM (inactive)
HCC 2998
  GI50: > 100 µM (inactive)
HCT-116
  GI50: > 100 µM (inactive)
HL-60
  GI50: > 100 µM (inactive)
HOP-62
  GI50: > 100 µM (inactive)
HOP-92
  GI50: > 100 µM (inactive)
IGROV-1
  GI50: > 100 µM (inactive)
K562
  GI50: > 100 µM (inactive)
LXFL 529
  GI50: > 100 µM (inactive)
M14
  GI50: > 100 µM (inactive)
M19-MEL
  GI50: > 100 µM (inactive)
MOLT-4
  GI50: > 100 µM (inactive)
Malme-3M
  GI50: > 100 µM (inactive)
NCI-H226
  GI50: > 100 µM (inactive)
NCI-H23
  GI50: > 100 µM (inactive)
NCI-H522
  GI50: > 100 µM (inactive)
OVCAR-4
  GI50: > 100 µM (inactive)
RPMI-8226
  GI50: > 100 µM (inactive)
RXF 631
  GI50: > 100 µM (inactive)
SF-268
  GI50: > 100 µM (inactive)
SF-539
  GI50: > 100 µM (inactive)
SK-MEL-28
  GI50: > 100 µM (inactive)
SK-MEL-2
  GI50: > 100 µM (inactive)
SK-OV-3
  GI50: > 100 µM (inactive)
SNB-75
  GI50: > 100 µM (inactive)
SNB-78
  GI50: > 100 µM (inactive)
SR
  GI50: > 100 µM (inactive)
UACC-62
  GI50: > 100 µM (inactive)
UO-31
  GI50: > 100 µM (inactive)

## CCOC(=N)CC(=O)Nc1ccccc1
786-0
  GI50: > 46.5 µM (inactive)
A498
  GI50: > 46.5 µM (inactive)
A549
  GI50: > 46.5 µM (inactive)
ACHN
  GI50: > 46.5 µM (inactive)
CAKI-1
  GI50: > 100 µM (inactive)
CCRF-CEM
  GI50: 19.4 µM (inactive)
COLO 205
  GI50: > 46.5 µM (inactive)
DLD-1
  GI50: > 46.5 µM (inactive)
DMS-114
  GI50: 35.8 µM (inactive)
DMS-273
  GI50: > 46.5 µM (inactive)
EKVX
  GI50: > 100 µM (inactive)
HCC 2998
  GI50: > 31.6 µM (inactive)
HCT-116
  GI50: > 46.5 µM (inactive)
HCT-15
  GI50: 32.8 µM
HL-60
  GI50: > 100 µM (inactive)
HOP-18
  GI50: > 31.6 µM (inactive)
HOP-62
  GI50: > 46.5 µM (inactive)
HOP-92
  GI50: > 10 µM (inactive)
HT-29
  GI50: > 46.5 µM (inactive)
IGROV-1
  GI50: > 46.5 µM (inactive)
K562
  GI50: 22.1 µM (inactive)
KM-20L2
  GI50: > 100 µM (inactive)
KM12
  GI50: > 46.5 µM (inactive)
LOX IMVI
  GI50: 47.5 µM (inactive)
LXFL 529
  GI50: > 46.5 µM (inactive)
M14
  GI50: > 46.5 µM (inactive)
M19-MEL
  GI50: > 46.5 µM (inactive)
MOLT-4
  GI50: > 31.6 µM (inactive)
Malme-3M
  GI50: > 46.5 µM (inactive)
NCI-H226
  GI50: > 31.6 µM (inactive)
NCI-H23
  GI50: > 46.5 µM (inactive)
NCI-H460
  GI50: > 46.5 µM (inactive)
NCI-H522
  GI50: > 100 µM (inactive)
OVCAR-3
  GI50: > 31.6 µM (inactive)
OVCAR-4
  GI50: 34.5 µM (inactive)
OVCAR-5
  GI50: > 100 µM (inactive)
OVCAR-8
  GI50: > 21.5 µM (inactive)
RPMI-8226
  GI50: 15.9 µM (inactive)
RXF 393
  GI50: > 46.5 µM (inactive)
SF-268
  GI50: > 46.5 µM (inactive)
SF-295
  GI50: > 100 µM (inactive)
SF-539
  GI50: > 46.5 µM (inactive)
SK-MEL-28
  GI50: > 46.5 µM (inactive)
SK-MEL-2
  GI50: > 31.6 µM (inactive)
SK-MEL-5
  GI50: > 46.5 µM (inactive)
SK-OV-3
  GI50: > 100 µM (inactive)
SN12C
  GI50: > 46.5 µM (inactive)
SNB-19
  GI50: > 100 µM (inactive)
SNB-75
  GI50: > 46.5 µM (inactive)
SNB-78
  GI50: > 46.5 µM (inactive)
SR
  GI50: > 39.9 µM (inactive)
SW-620
  GI50: 36.9 µM (inactive)
TK-10
  GI50: > 46.5 µM (inactive)
U-251
  GI50: > 100 µM (inactive)
UACC-257
  GI50: > 46.5 µM (inactive)
UACC-62
  GI50: > 100 µM (inactive)
UO-31
  GI50: > 46.5 µM (inactive)
XF498
  GI50: > 43.9 µM (inactive)
